This is an account of results in patent publication US6743809B2, “Indole Derivatives useful for the treatment of CNS disorders” (H. Lundbeck A/S, priority 2000, dated 2004).

Each structure is given as a SMILES string.

In the first experiment the target is T1, human cloned dopamine D4.2 receptors (Homo sapiens, UniProt P21917, DEL265-296).
T1 construct: expressed in transfected cells; host or cells: CHO cells
T1 sequence (P21917 with tags, fused parts or gaps DEL265-296): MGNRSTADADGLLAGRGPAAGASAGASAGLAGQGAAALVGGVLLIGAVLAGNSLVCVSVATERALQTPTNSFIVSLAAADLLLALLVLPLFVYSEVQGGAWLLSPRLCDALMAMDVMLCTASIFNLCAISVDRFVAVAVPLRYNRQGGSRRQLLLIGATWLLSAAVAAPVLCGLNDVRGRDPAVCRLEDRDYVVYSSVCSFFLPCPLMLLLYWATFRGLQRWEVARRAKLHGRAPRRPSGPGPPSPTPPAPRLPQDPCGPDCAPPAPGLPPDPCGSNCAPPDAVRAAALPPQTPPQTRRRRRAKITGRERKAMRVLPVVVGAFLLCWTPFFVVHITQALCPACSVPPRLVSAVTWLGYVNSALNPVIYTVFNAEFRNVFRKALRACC
Briefly: Inhibition of the binding of [3H]YM-09151-2 to human dopamine D4 receptors. The note with it: 50 nM compound; [3H]YM-09151-2 0.06 nM; membranes of CHO-cells. The protocol:
Inhibition of the Binding of [^3H]YM-09151-2 to Human Dopamine D4 Receptors
By this method, the inhibition by drugs of the binding of [^3H]YM-09151-2 (0.06 nM) to membranes of human cloned dopamine D4.2 receptors expressed in CHO-cells is determined in vitro. The method is modified from NEN Life Science Products, Inc., technical data certificate PC2533-10/96.
The term inhibition denotes how much of the control response was suppressed. A lower inhibition goes with a weak effect. `Cc1ccc(NC(=O)C2CCCC2)cc1CCN1CCC(c2c[nH]c3cc(Cl)ccc23)CC1` [Compound 3v, 3-[1-(2-{5-[(Cyclopentylmethanoyl)amino]-2-methylphenyl}ethyl)piperidin-4-yl]-6-chloro-1H-indole] gave an inhibition at 0.05 µM of 95%.

As to `COc1ccc(CC(=O)Nc2ccc(C)c(CCN3CCC(c4c[nH]c5cc(Cl)ccc45)CC3)c2)cc1` [Compound 3t, 3-[1-(2-{5-[2-(4-Methoxyphenyl)ethanoylamino]-2-methylphenyl}ethyl)piperidin-4-yl]-6-chloro-1H-indole], the inhibition at 0.05 µM was found to be 75%.

As for `Cc1ccc(NC(=O)c2cccnc2)cc1CCN1CCC(c2c[nH]c3ccc(F)cc23)CC1` [Compound 3k, 3-(1-{2-[2-Methyl-5-(pyridin-3-ylmethanoylamino)phenyl]ethyl}piperidin-4-yl)-5-fluoro-1H-indole], 0.05 µM produced 91% inhibition.

`Cc1ccc(NC(=O)C(C)C)cc1CCN1CCC(c2c[nH]c3cc(Cl)ccc23)CC1` [Compound 3q, 3-(1-{2-[5-(Isobutanoylamino)-2-methylphenyl]ethyl}piperidin-4-yl)-6-chloro-1H-indole]: 0.05 µM produced 97% inhibition.

`Cc1ccc(NC(=O)C2CC2)cc1CCN1CCC(c2c[nH]c3ccc(F)cc23)CC1` [Compound 3d, 3-(1-{2-[5-(Cyclopropylmethanoylamino)-2-methylphenyl]ethyl}piperidin-4-yl)-5-fluoro-1H-indole] displayed an inhibition at 0.05 µM of 89%.

Compound `Cc1ccc(NC(=O)c2cnns2)cc1CCN1CCC(c2c[nH]c3c(Cl)cccc23)CC1` [Compound 4k, 3-[1-(2-{2-Methyl-5-[(1-[1,2,3]thiadiazol-5-ylmethanoyl)amino]phenyl}ethyl)piperidin-4-yl]-7-chloro-1H-indole] gave an inhibition at 0.05 µM of 67%.

`CCCCCC(=O)Nc1ccc(C)c(CCN2CCC(c3c[nH]c4ccc(F)cc34)CC2)c1` [Compound 3h, 3-(1-{2-[5-(Hexanoylamino)-2-methylphenyl]ethyl}piperidin-4-yl)-5-fluoro-1H-indole]: the inhibition at 0.05 µM was determined as 83%.

The compound `COc1ccc(C(=O)Nc2ccc(C)c(CCN3CCC(c4c[nH]c5c(Cl)cccc45)CC3)c2)cc1` [Compound 4f, 3-(1-{2-[5-(4-Methoxybenzoylamino)-2-methylphenyl]ethyl}piperidin-4-yl)-7-chloro-1H-indole] registered an inhibition at 0.05 µM of 48%.

As for `Cc1ccc(NC(=O)Cc2ccccc2)cc1CCN1CCC(c2c[nH]c3c(Cl)cccc23)CC1` [Compound 3ae, 3-[1-(2-{5-[(2-Phenylethanoyl)amino]-2-methylphenyl}ethyl)piperidin-4-yl]-7-chloro-1H-indole], the inhibition at 0.05 µM turned out to be 89%.

On to `Cc1ccc(NC(=O)Nc2ccc(F)cc2)cc1CCN1CCC(c2c[nH]c3ccc(F)cc23)CC1` [Compound 3y, 3-[1-(2-{5-[3-(4-Fluorophenyl)ureido]-2-methylphenyl}ethyl)piperidin-4-yl]-5-fluoro-1H-indole], for which 0.05 µM produced 83% inhibition.

`Cc1ccc(NC(=O)c2ccc(F)cc2)cc1CCN1CCC(c2c[nH]c3c(Cl)cccc23)CC1` [Compound 4e, 3-(1-{2-[5-(4-Fluorobenzoylamino)-2-methylphenyl]ethyl}piperidin-4-yl)-7-chloro-1H-indole] registered an inhibition at 0.05 µM of 44%.

In the case of `Cc1ccc(C(=O)Nc2ccc(C)c(CCN3CCC(c4c[nH]c5ccc(F)cc45)CC3)c2)cc1` [Compound 3m, 3-(1-{2-[2-Methyl-5-(4-methylbenzoylamino)phenyl]ethyl}piperidin-4-yl)-5-fluoro-1H-indole], the inhibition at 0.05 µM came to 81%.

On to `Cc1ccc(NC(=O)N(C)c2ccccc2)cc1CCN1CCC(c2c[nH]c3cc(Cl)ccc23)CC1` [Compound 3n, 3-(1-{2-[2-Methyl-5-(3-Methyl-3-phenylureido)phenyl]ethyl}piperidin-4-yl)-6-chloro-1H-indole], for which at 0.05 µM the inhibition was 76%.

The next experiment deals with T2, D4 receptor (Homo sapiens, UniProt P21917).
T2 sequence (P21917 1-419): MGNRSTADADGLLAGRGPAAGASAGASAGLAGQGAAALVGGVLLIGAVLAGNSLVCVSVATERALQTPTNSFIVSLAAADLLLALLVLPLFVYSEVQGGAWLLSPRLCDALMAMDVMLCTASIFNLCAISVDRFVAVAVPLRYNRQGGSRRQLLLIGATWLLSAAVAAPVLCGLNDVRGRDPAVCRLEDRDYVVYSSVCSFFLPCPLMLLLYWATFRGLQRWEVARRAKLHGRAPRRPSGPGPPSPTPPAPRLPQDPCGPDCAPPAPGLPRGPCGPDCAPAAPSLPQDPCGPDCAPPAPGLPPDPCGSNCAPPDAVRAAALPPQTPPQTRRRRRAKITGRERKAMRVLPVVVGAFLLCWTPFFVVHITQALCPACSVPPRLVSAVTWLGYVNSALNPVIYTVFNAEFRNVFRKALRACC
Assay: not given
As to conditions: literature report, result in words; cited from earlier work.
With `CC(C)Oc1cccnc1N(C)C1CCN(Cc2ccccc2)CC1` [Compound U-101958], the “functional activity at D4 receptor” value is given as “partial D4 receptor agonists”.
